This assay concerns the target 5-HT2A receptor (Homo sapiens (Human), UniProt P28223). Kind of assay: Receptor Selection and Amplification (R-SAT) functional antagonist assay.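 Further: Read-out is β-galactosidase marker gene activity with ONPG substrate, measured after five days of growth in 96-well plates holding the test compound.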
Setting [1] is: R-SAT, transfected NIH3T3 cells, guidance: high affinity pKi≥8.4, moderate affinity pKi≥7.7.

Like-named read-outs stand apart in the source and are kept apart here.

Sequence of 5-HT2A receptor (P28223 whole entry): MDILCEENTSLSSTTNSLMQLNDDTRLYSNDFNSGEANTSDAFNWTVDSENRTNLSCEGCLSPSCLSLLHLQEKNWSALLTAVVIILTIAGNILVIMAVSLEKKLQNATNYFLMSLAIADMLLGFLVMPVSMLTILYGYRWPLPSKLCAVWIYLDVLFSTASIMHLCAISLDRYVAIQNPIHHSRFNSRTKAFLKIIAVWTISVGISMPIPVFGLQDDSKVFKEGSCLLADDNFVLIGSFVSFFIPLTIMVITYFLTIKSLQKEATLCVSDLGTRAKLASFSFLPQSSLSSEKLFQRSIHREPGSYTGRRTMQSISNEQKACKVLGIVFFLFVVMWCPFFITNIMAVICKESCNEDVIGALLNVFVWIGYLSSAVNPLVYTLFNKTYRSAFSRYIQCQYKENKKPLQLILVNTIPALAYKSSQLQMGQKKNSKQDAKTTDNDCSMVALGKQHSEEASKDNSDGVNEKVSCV
Procedure: Receptor Selection and Amplification (R-SAT) Assays. […] For large-scale transfections, cells were transfected for 12-16 h, then trypsinized and frozen in DMSO. Frozen cells were later thawed, plated at 10,000-40,000 cells per well of a 96 well plate that contained a compound according to Formula (I). […] With both methods, cells were then grown in a humidified atmosphere with 5% ambient CO2 for five days. Media was then removed from the plates and marker gene activity was measured by the addition of the b-galactosidase substrate o-nitrophenyl b-D-galactopyranoside (ONPG, in PBS with 5% NP-40). […] All data were analyzed using the computer program XLFit (IDBSm).

For `CC(C)Oc1ccc(COC(=O)N(Cc2c(F)ccc(F)c2F)C2CCN(C)CC2)cc1` [Compound 66, [4-(propan-2-yloxy)phenyl]methyl N-(1-methylpiperidin-4-yl)-N-[(2,3,6-trifluorophenyl)methyl]carbamate], under setting [1], the “5-HT2a pKi” value was determined as 8.4.

With `COC(=O)C(C)(C)CN1CCC(N(Cc2ccc(F)cc2F)C(=O)OCc2ccc(OC(C)C)cc2)CC1` [Compound 42, methyl 3-(4-{[(2,4-difluorophenyl)methyl]({[4-(propan-2-yloxy)phenyl]methoxy}carbonyl)amino}piperidin-1-yl)-2,2-dimethylpropanoate], the “5-HT2a pKi” value under setting [1] is recorded as 8.0.

Regarding `CN1CCC(N(Cc2ccc(F)cc2F)C(=O)OCc2ccc(OCCCF)cc2)CC1.O=C(O)C(F)(F)F` [Compound 27, 4-(3-fluoropropoxy)benzyl (2,4-difluorobenzyl)(1-methylpiperidin-4-yl)carbamate; trifluoroacetic acid], the “5-HT2a pKi” value came out at 9.8.

For `Cc1cc(F)ccc1CN(C(=O)Cc1ccc(OCC(C)C)cc1)C1CCN(C)CC1.O=C(O)C(F)(F)F` [Compound 52, N-[(4-fluoro-2-methylphenyl)methyl]-N-(1-methylpiperidin-4-yl)-2-[4-(2-methylpropoxy)phenyl]acetamide; trifluoroacetic acid], under setting [1], the “5-HT2a pKi” value is given as 6.7.

As to `CC(C)COc1ccc(CC(=O)N(Cc2ccc(Cl)cc2C(F)(F)F)C2CCN(C)CC2)cc1` [Compound 50, N-{[4-chloro-2-(trifluoromethyl)phenyl]methyl}-N-(1-methylpiperidin-4-yl)-2-[4-(2-methylpropoxy)phenyl]acetamide; trifluoroacetic acid], the affinity corresponds to a Ki of 200 µM.

In the case of `CN1CCC(N(Cc2ccc(F)cc2F)C(=O)OCc2ccc(OC(C)(C)C)cc2)CC1.O=C(O)C(F)(F)F` [Compound 72], the “5-HT2a pKi” value was determined as 10.0.

Regarding `Cc1ccc(F)c(CN(C(=O)OCc2ccc(OC(C)C)cc2)C2CCN(C)CC2)c1F` [Compound 65, [4-(propan-2-yloxy)phenyl]methyl N-[(2,6-difluoro-3-methylphenyl)methyl]-N-(1-methylpiperidin-4-yl)carbamate], the “5-HT2a pKi” value under setting [1] was 7.7.

In the case of `CC(C)Oc1ccc(COC(=O)N(Cc2ccc(F)cc2)[C@H]2CCN3CCC[C@H]3C2)cc1` [Compound 18, [4-(propan-2-yloxy)phenyl]methyl N-[(7S,8aS)-octahydroindolizin-7-yl]-N-[(4-fluorophenyl)methyl]carbamate], the affinity, expressed as Ki, was 1.58e-05 µM.

On to `CC(C)Oc1ccc(COC(=O)N(Cc2ccc(F)cc2C(F)(F)F)C2CCN(C)CC2)cc1` [Compound 81], for which the inhibitory constant (Ki) – broadly, the dissociation constant of the complex between target and ligand, obtained from inhibition or displacement – was 2000 µM.

`CC(C)Oc1ccc(CC(=O)N(Cc2ccc(F)c(F)c2F)C2CCN(C)CC2)cc1.O=C(O)C(F)(F)F` [Compound 34, N-(1-methylpiperidin-4-yl)-2-[4-(propan-2-yloxy)phenyl]-N-[(2,3,4-trifluorophenyl)methyl]acetamide; trifluoroacetic acid]: the “5-HT2a pKi” value was found to be 7.4.

Regarding `CCCCOc1ccc(COC(=O)N(Cc2ccc(F)cc2F)C2CCN(C)CC2)cc1` [Compound 40, (4-butoxyphenyl)methyl N-[(2,4-difluorophenyl)methyl]-N-(1-methylpiperidin-4-yl)carbamate], the “5-HT2a pKi” value under setting [1] came out at 8.9.

For `CC(C)COc1ccc(COC(=O)N(Cc2ccc(Cl)cc2Cl)C2CCN(C)CC2)cc1` [Compound 64, [4-(2-methylpropoxy)phenyl]methyl N-[(2,4=dichlorophenyl)methyl]-N-(1-methylpiperidin-4-yl)carbamate], the “5-HT2a pKi” value under setting [1] is 8.0.

For `CC(C)Oc1ccc(/C=C/C(=O)N(Cc2ccc(F)cc2F)C2CCN(C)CC2)cc1` [Compound 48, (2E)-N-[(2,4-difluorophenyl)methyl]-N-(1-methylpiperidin-4-yl)-3-[4-(propan-2-yloxy)phenyl]prop-2-enamide], the “5-HT2a pKi” value under setting [1] came out at 7.4.

Consider `COc1ccc(CSC(=O)N(Cc2ccc(F)cc2F)C2CCN(C)CC2)cc1` [Compound 16, N-[(2,4-difluorophenyl)methyl]-N-(1-methylpiperidin-4-yl){[(4-methoxyphenyl)methyl]sulfanyl}formamide], for which, under setting [1], the “5-HT2a pKi” value came out at 7.6.

Turning to `CCCCOc1ccc(CC(=O)N(Cc2ccc(F)cc2F)C2CCN(C)CC2)cc1.O=C(O)C(F)(F)F` [Compound 24, N-(2,4-difluorobenzyl)-2-(4-butoxyphenyl)-N-(1-methylpiperidin-4-yl)acetamide trifluoroacetic acid], the “5-HT2a pKi” value came out at 7.2.

Take `CC(C)Oc1ccc(COC(=O)N(Cc2ccc(C(F)(F)F)cc2F)C2CCN(C)CC2)cc1.O=C(O)C(F)(F)F` [Compound 79]: the “5-HT2a pKi” value under setting [1] is 8.4.

The compound `CC(C)Oc1ccc(COC(=O)N(Cc2ccc(F)cc2)[C@H]2CCN(C)C[C@H]2F)cc1` (racemic) [4a/4b, [4-(propan-2-yloxy)phenyl]methyl N-[(3R,4S)-3-fluoro-1-methylpiperidin-4-yl]-N-[(4-fluorophenyl)methyl]carbamate (4a) and [4-(propan-2-yloxy)phenyl]methyl N-[(3S,4R)-3-fluoro-1-methylpiperidin-4-yl]-N-[(4-fluorophenyl)methyl]carbamate (4b)] registered a Ki of 0.0001 µM.

For `CC(C)COc1ccc(CC(=O)N(Cc2ccc(Cl)cc2F)C2CCN(C)CC2)cc1.O=C(O)C(F)(F)F` [Compound 31, N-[(4-chloro-2-fluorophenyl)methyl]-N-(1-methylpiperidin-4-yl)-2-[4-(2-methylpropoxy)phenyl]acetamide; trifluoroacetic acid], the “5-HT2a pKi” value is recorded as 7.3.

With `CC(C)Oc1ccc(CC(=O)N(Cc2ccc(F)cc2Cl)C2CCN(C)CC2)cc1.O=C(O)C(F)(F)F` [Compound 62, N-[(2-chloro-4-fluorophenyl)methyl]-N-(1-methylpiperidin-4-yl)-2-[4-(propan-2-yloxy)phenyl]acetamide; trifluoroacetic acid], under setting [1], the “5-HT2a pKi” value is listed as 6.5.

`CCOc1ccc(COC(=O)N(Cc2ccc(F)cc2F)C2CCN(C)CC2)cc1` [Compound 25, 4-ethoxybenzyl (2,4-difluorobenzyl)(1-methylpiperidin-4-yl)carbamate]: under setting [1], the “5-HT2a pKi” value stood at 9.7.

Regarding `CC(=O)O.COc1cc(F)c(CN(C(=O)OCc2ccc(OCC(C)C)cc2)C2CCN(C)CC2)c(F)c1` [Compound 36, [4-(2-methylpropoxy)phenyl]methyl N-[(2,6-difluoro-4-methoxyphenyl)methyl]-N-(1-methylpiperidin-4-yl)carbamate; acetic acid], the “5-HT2a pKi” value is on record as 9.0.

As for `CC(C)Oc1ccc(CC(=O)N(Cc2ccc(Cl)cc2Cl)C2CCN(C)CC2)cc1.O=C(O)C(F)(F)F` [Compound 60, N-[(2,4-dichlorophenyl)methyl]-N-(1-methylpiperidin-4-yl)-2-[4-(propan-2-yloxy)phenyl]acetamide; trifluoroacetic acid], the “5-HT2a pKi” value under setting [1] amounted to 6.5.

As to `CC(C)Oc1ccc(COC(=O)N(Cc2ccc(F)cc2)C2CCN(C)CC2)cc1` [Compound 12, [4-(propan-2-yloxy)phenyl]methyl N-[(4-fluorophenyl)methyl]-N-(1-methylpiperidin-4-yl)carbamate], under setting [1], the “5-HT2a pKi” value came to 9.6.

Turning to `CC(C)Oc1ccc(COC(=O)N(Cc2ccc(F)cc2F)C2CCN(C)CC2)cc1` [Compound 13, [4-(propan-2-yloxy)phenyl]methyl N-[(2,4-difluorophenyl)methyl]-N-(1-methylpiperidin-4-yl)carbamate], under setting [1], the “5-HT2a pKi” value is 9.9.

For the compound `CC(C)Oc1ccc(COC(=O)N(Cc2c(F)cc(Cl)cc2F)C2CCN(C)CC2)cc1` [Compound 74], under setting [1], the “5-HT2a pKi” value came to 9.1.

With `CN1CCC(N(Cc2ccc(F)cc2F)C(=O)OCc2ccc(OC3CC3)cc2)CC1` [Compound 30, 4-cyclopropoxybenzyl (2,4-difluorobenzyl)(1-methylpiperidin-4-yl)carbamate], the “5-HT2a pKi” value under setting [1] stood at 10.5.

As to `COc1ccc(CN(C(=O)Cc2ccc(OCC(C)C)cc2)C2CCN(C)CC2)c(Cl)c1.O=C(O)C(F)(F)F` [Compound 53, N-[(2-chloro-4-methoxyphenyl)methyl]-N-(1-methylpiperidin-4-yl)-2-[4-(2-methylpropoxy)phenyl]acetamide; trifluoroacetic acid], under setting [1], the “5-HT2a pKi” value worked out at 6.9.

Regarding `CC(C)COc1ccc(COC(=O)N(Cc2ccc(F)c(F)c2F)C2CCN(C)CC2)cc1` [Compound 37, [4-(2-methylpropoxy)phenyl]methyl N-(1-methylpiperidin-4-yl)-N-[(2,3,4-trifluorophenyl)methyl]carbamate], the “5-HT2a pKi” value under setting [1] was found to be 8.9.

`C=CCOc1ccc(COC(=O)N(Cc2ccc(F)cc2F)C2CCN(C)CC2)cc1` [Compound 26, 4-(allyloxy)benzyl (2,4-difluorobenzyl)(1-methylpiperidin-4-yl)carbamate]: the “5-HT2a pKi” value under setting [1] is recorded as 9.3.

`CC(C)COc1ccc(CCOC(=O)N(Cc2ccc(F)cc2)[C@H]2CCN(C)C[C@H]2F)cc1` (racemic) [10a/10b, 2-[4-(2-methylpropoxy)phenyl]ethyl N-[(3R,4S)-3-fluoro-1-methylpiperidin-4-yl]-N-[(4-fluorophenyl)methyl]carbamate (10a) and 2-[4-(2-methyl-propoxy)phenyl]ethyl N-[(3S,4R)-3-fluoro-1-methylpiperidin-4-yl]-N-[(4-fluorophenyl)-methyl]carbamate (10b)] gave a Ki of 0.0158 µM.

Regarding `CC(C)Oc1ccc(COC(=O)N(Cc2ccc(F)cc2Cl)C2CCN(C)CC2)cc1` [Compound 63, [4-(propan-2-yloxy)phenyl]methyl N-[(2-chloro-4-fluorophenyl)-methyl]-N-(1-methylpiperidin-4-yl)carbamate], the “5-HT2a pKi” value under setting [1] was found to be 8.4.

Consider `CC(C)COc1ccc(CC(=O)N(Cc2ccc(F)cc2F)C2CCN(C)CC2)cc1.O=C(O)C(F)(F)F` [Compound 22, N-(2,4-difluorobenzyl)-2-(4-isobutoxyphenyl)-N-(1-methylpiperidin-4-yl)acetamide; trifluoroacetic acid], for which the “5-HT2a pKi” value under setting [1] was 8.2.

Consider `CC(C)Oc1ccc(COC(=O)N(Cc2ccc(F)cc2F)C2CCN(CC(C)(C)C(=O)O)CC2)cc1` [Compound 43, 3-(4-{[(2,4-difluorophenyl)methyl]({[4-(propan-2-yloxy)phenyl]-methoxy}carbonyl)amino}piperidin-1-yl)-2,2-dimethylpropanoic acid], for which the “5-HT2a pKi” value under setting [1] was 8.5.

For the origin of these results see patent US11440884B2, “Compounds, salts thereof and methods for treatment of diseases” (ACADIA PHARMACEUTICALS INC., priority 2017, dated 2022).
